Earlier results as cited in patent US11103580B2, “Methods and systems for treating cell proliferation disorders” (Immunolight, LLC, priority 2007, dated 2021).
Like-named read-outs stand apart in the source and are kept apart here.

How the values were obtained:
[1] = system: rapidly dividing tissue; conditions: in vivo
[2] = for Length of photosensitization: Table 3, known photosensitizers
[3] = system: leukocytes; conditions: administered orally to a patient
[4] = in excess
[5] = system: tumors; conditions: in vivo

Compound: C/C1=C2/[N-][C@H]([C@H](CC(N)=O)[C@@]2(C)CCC(=O)NC[C@@H](C)OP(=O)([O-])O[C@H]2[C@@H](O)[C@@H](n3cnc4cc(C)c(C)cc43)O[C@@H]2CO)[C@]2(C)N=C(/C(C)=C3N=C(/C=C4N=C1[C@@H](CCC(N)=O)C\4(C)C)[C@@H](CCC(N)=O)[C@]\3(C)CC(N)=O)[C@@H](CCC(N)=O)[C@]2(C)CC(N)=O.[CH3-].[Co+3] [methylcobalamin]
- uptake in rapidly dividing tissue [1]: increased uptake

Compound: Oc1cccc(-c2c3nc(c(-c4cccc(O)c4)c4ccc([nH]4)c(-c4cccc(O)c4)c4nc(c(-c5cccc(O)c5)c5ccc2[nH]5)CC4)C=C3)c1 [Foscan, Tetra (m-hydroxyphenyl) chlorin]
- Length of photosensitization [2]: 2 weeks
- duration of skin photosensitivity ([2]; approximately): approximately 2 weeks

Compound: COc1c2occc2cc2ccc(=O)oc12 [Compound 8-MOP, 8-methoxypsoralen]
- inducing an apoptosis of leukocytes [3]: effective at inducing an apoptosis of leukocytes
- safety [3]: safe

Compound: Vitamin B12
- water solubility: water soluble
- excretion [4]: excreted by gloinerular filtration

Compound: CC(=O)[O-].CC(=O)[O-].CCc1c(CC)c2cc3nc(cnc4cc(OCCOCCOCCOC)c(OCCOCCOCCOC)cc4ncc4nc(cc1[n-]2)C(CCCO)=C4C)C(C)=C3CCCO.O.[Lu+3] [Lutetium texaphryin, Motexafin lutetium]
- selectivity for tumors compared to normal tissues [5]: one of the greatest reported selectivities for tumors
- Length of photosensitization [2]: 24 to 48 h
- duration of skin photosensitivity ([2]; clinical use): 24 to 48 h

Compound: Cobalt-57-cyanocobalamin
- uptake in rapidly dividing tissue [1]: increased uptake
